Test results reported in patent US9572786B2, “Use of capsiate or dihydrocapsidate” (Catholic University Industry Academy Cooperation Foundation, priority 2007, dated 2017).

How the values were obtained:
HUVEC [1] = experiment: Cell cycle analysis by FACS; type: cell-based, human; details: 1, 5, 10, 25 μM, 10 ng/mL VEGF, 20 hours
Protocol: In order to identify the mechanism of the inhibition of proliferation of endothelial cells confirmed in Example 9, fluorescence-activated cell sorting (FACS) analysis was carried out on the cells at different phases of cell cycle.
3×10^5 HUVEC were placed on a 60 mm plate and cultured for 24 hours. After washing twice with M199 medium (Invitrogen, USA), the cells were cultured in M199 medium containing 1% FBS for 6 hours. After adding capsiate or dihydrocapsiate at different concentrations (1 μM, 5 μM, 10 μM, 25 μM), followed by pre-culturing for 30 minutes, 10 ng/mL VEGF was added and the cells were cultured for 20 hours. Then, the cells were fixed with ethanol cooled in ice. The fixed cells were dehydrated in PBS containing 2% FBS and 0.1% Tween 20 at 4° C. for 30 minutes. After centrifuge, the cells were lysed in the same buffer solution. After treating with RNase (37° C., 1 hr), followed by staining with propidium iodide, analysis was carried out using a FACS analyzer (FACScan DB PharMingen flow cytometer).

HUVEC [2] = experiment: [14C] sucrose permeability assay; type: cell-based, human; details: 5, 10, 25 μM, VEGF 50 ng/mL for 1 hour
Protocol: [^14C] sucrose permeability assay was carried out in order to identify the effect of capsiate or dihydrocapsiate on VEGF-induced endothelial permeability. In brief, HUVEC were placed on a transwell filter (Corning Costar). At confluence, the cells were cultured in M199 medium containing 1% FBS for 3 hours. After treating with capsiate or dihydrocapsiate at different concentrations (5 μM, 10 μM, 25 μM) for 30 minutes, the cells were treated with VEGF (50 ng/mL) for 1 hour. [^14C] sucrose (0.8 μCi/mL, 50 μL) was added to the upper compartment. 30 minutes later, the irradiation level was measured at the lower compartment using a scintillation counter (Wallac, PerkinElmer).

VE-cadherin [3] = experiment: Tyrosine phosphorylation of VE-cadherin, Western blotting; type: cell-based, human; details: HUVEC; 5, 10, 25 μM; 50 ng/mL VEGF
Protocol: Because VEGF is known to induce tyrosine phosphorylation of VE-cadherin and thereby regulate permeability between endothelial cells by making the intercellular contact loose [Esser S. et al., 1998, J. Cell Sci., 111: 1853-1865], the inhibition effect on tyrosine phosphorylation of VE-cadherin was investigated.
3.5×10^5 HUVEC were placed on a 60 mm plate and cultured for 24 hours. After washing twice with M199 medium (Invitrogen, USA), the cells were cultured in M199 medium containing 1% FBS for 6 hours. After treating with capsiate or dihydrocapsiate at different concentrations (5 μM, 10 μM, 25 μM) for 30 minutes, followed by pre-culturing for 30 minutes, the cells were cultured for 6 hours after adding 50 ng/mL VEGF. Proteins were collected from the cells and, after quantitation, subjected to Western blotting using VE-cadherin antibody in order to identify the level of protein expression.

CD31 = experiment: Endothelial cell content in Matrigel plug, CD31 immunohistochemical staining; type: in vivo; details: C57/BL6 mouse Matrigel plug; 60 μg; 100 ng VEGF
Protocol: Immunohistochemical staining was carried out using CD31 in order to measure the endothelial cell content in the Matrigel plug.
The Matrigel plug was fixed using 2% formaldehyde and moisture was removed from the Matrigel using 15% sucrose and 30% sucrose based on the principle of osmosis. Then, the Matrigel plug was hardened at −70° C. The hardened Matrigel plug was sliced with a thickness of 8-12 μm, stained with CD31-antibody (PECAM-1 antibody, BD Biosciences, USA) and the level of expression by endothelial cells was observed under a microscope.

VE-cadherin [4] = experiment: VE-cadherin expression in the intercellular junction, immunofluorescence; type: cell-based, human; details: HUVEC; 5, 10, 25 μM pre-treatment; VEGF 50 ng/mL for 1 hour
Protocol: In order to identify if the change of permeability of endothelial cells is related with VE-cadherin, the level of VE-cadherin expression in the intercellular junction was investigated.
HUVEC were placed on a gelatin-coated cover slip at a concentration of 12×10^5 cells/well and cultured for 24 hours. After washing twice with M199 medium, the cells were cultured in M199 medium containing 1% for 6 hours. After treating with capsiate or dihydrocapsiate at different concentrations (5 μM, 10 μM, 25 μM) for 30 minutes, the cells were treated with VEGF (50 ng/mL) for 1 hour. The cells were fixed and made permeable by treating with 2% formaldehyde for 10 minutes, and washed 3 times with PBS. Subsequently, the cells were treated with 0.1% Triton X-100 and 2% bovine serum albumin (BSA)/PBS blocking solution for 30 minutes. After labeling with VE-cadherin at room temperature for 2 hours, followed by washing with PBS, the cells were labeled again with FITC-conjugated secondary antibody at room temperature for 1 hour and 30 minutes. The cover slip was mounted on SloFade (Molecular Probes) and observed under a fluorescence microscope (Carl Zeiss).

cyclin D1 = experiment: Cyclin expression, Western blotting: cyclin D1; type: cell-based, human; details: HUVEC; 1, 5, 10, 25 μM; 10 ng/mL VEGF; 12 hours
Protocol: 3×10^5 HUVEC were placed on a 60 mm plate and cultured for 24 hours. After washing twice with M199 medium (Invitrogen, USA), the cells were cultured in M199 medium containing 1% FBS for 6 hours. After adding capsiate or dihydrocapsiate at different concentrations (1 μM, 5 μM, 10 μM, 25 μM), followed by pre-culturing for 30 minutes, 10 ng/mL VEGF was added and the cells were cultured for 12 hours. The cells were collected and proteins obtained therefrom were quantitated and the expression level of the proteins was identified by Western blotting using antibodies of cyclin D1, cyclin E and cyclin A.

HUVEC [5] = experiment: Tube formation on Matrigel; type: cell-based, human; details: 1, 5, 10, 25 μM, VEGF 10 ng/mL, 20 hours
Protocol: The effect of capsiate or dihydrocapsiate on tube formation was investigated according to a method published in the literature [Lee O H et al., 1999, Biochem. Biophys. Res. Commun. 264; 743-750].
In brief, 250 μL of growth factor-reduced Matrigel (10 mg protein/mL) was added to a 16 mm tissue culture well and subjected to polymerization at 37° C. for 30 minutes. HUVEC cultured for in M199 medium containing 1% FBS for 6 hours were treated with trypsin, collected, and resuspended in M199 medium containing 1% FBS. Capsiate or dihydrocapsiate at different concentrations (1 μM, 5 μM, 10 μM, 25 μM) were pre-treated at room temperature for 30 minutes. The cells were added to the Matrigel at a concentration of 1.8×10^5 cells/well and VEGF (10 ng/mL) was added. After culturing for 20 hours, photograph was taken (×200) and the area covered by the tube network was measured according to an optical imaging technique [scanned with Adobe Photoshop and measured with Image-Pro Plus (Media Cybermetics).

For COc1cc(COC(=O)CCCC/C=C/C(C)C)ccc1O [capsiate], the “number of endothelial cells in G1 arrest phase” value (HUVEC [1]) was “increase of the number of endothelial cells in G1 arrest phase”, the “VEGF-increased permeability of endothelial cells” value (HUVEC [2]) was “decreased in a concentration-dependent manner” and the “VEGF-induced phosphorylation of VE-cadherin” value (VE-cadherin [3]) was “decreased in a concentration-dependent manner”. The “level of CD31 expression in Matrigel plug” value (CD31) was “decreased to the extent comparable to the control group”, the “cell adhesion ability of VE-cadherin in the intercellular junction” value (VE-cadherin [4]) was “recovered” and the “VEGF-increased cyclin D1 expression in protein level” value (cyclin D1) was “concentration-dependent decrease”. The “VEGF-induced formation of tube-like structures” value (HUVEC [5]) was “reduced”.

In the case of COc1cc(COC(=O)CCCCCCC(C)C)ccc1O [dihydrocapsiate], the “number of endothelial cells in G1 arrest phase” value (HUVEC [1]) was “increase of the number of endothelial cells in G1 arrest phase”, the “VEGF-increased permeability of endothelial cells” value (HUVEC [2]) was “decreased in a concentration-dependent manner” and the “VEGF-induced phosphorylation of VE-cadherin” value (VE-cadherin [3]) was “decreased in a concentration-dependent manner”. For the same compound, the “level of CD31 expression in Matrigel plug” value (CD31) was “decreased to the extent comparable to the control group”, the “cell adhesion ability of VE-cadherin in the intercellular junction” value (VE-cadherin [4]) was “recovered” and the “VEGF-increased cyclin D1 expression in protein level” value (cyclin D1) was “concentration-dependent decrease”. The “VEGF-induced formation of tube-like structures” value (HUVEC [5]) was “reduced”.
